EP2193713A1, “Method for fighting animal pests without damaging pollinating insects” (Bayer CropScience AG, priority 2008, dated 2010)

Tests used:
Apis mellifera [1] = assay: Tunnel test / spray application / bees: acute mortality of pupae in front of the hive; assay type: in vivo
From the text: (§1) Der Test wurde gemäß EPPO (European Plant Protection Organisation) Leitlinie 170 wie folgt durchgeführt:
Tabelle 2 (siehe auch Figur 2)

Apis mellifera [2] = assay: Tunnel test / spray application / bees: brood development (share of comb cells); assay type: in vivo
From the text: as §1
Über alle Waben eines Bienenstocks wird der jeweilige Anteil an Zellen bestimmt, der durch Pollen, Nektar, Eier, Larven oder Puppen belegt ist bzw. leer ist. […]

[3] = 75 g a.s./ha, 1 Tag vor Applikation
[4] = 75 g a.s./ha, 6 Tage nach Applikation
[5] = 75 g a.s./ha, 14 Tage nach Applikation
[6] = 75 g a.s./ha, 27 Tage nach Applikation
[7] = 150 g a.s./ha, 1 Tag vor Applikation
[8] = 150 g a.s./ha, 6 Tage nach Applikation
[9] = 150 g a.s./ha, 14 Tage nach Applikation

O=C1C=C(N(Cc2ccc(Cl)nc2)CC(F)F)CO1 [I-5, 4-{[(6-Chlorpyrid-3-yl)methyl](2,2-difluorethyl)amino}furan-2(5H)-on]
Zahl toter Puppen (Apis mellifera [1]; 75 g a.s./ha, 0 DAA c (17:15 Uhr)): 0
Zahl toter Puppen (Apis mellifera [1]; 75 g a.s./ha, 1 DAA): 0
Zahl toter Puppen (Apis mellifera [1]; 75 g a.s./ha, 2 DAA): 0,3
Zahl toter Puppen (Apis mellifera [1]; 75 g a.s./ha, 5 DAA): 0
Zahl toter Puppen (Apis mellifera [1]; 75 g a.s./ha, 6 DAA): 0
Zahl toter Puppen (Apis mellifera [1]; 75 g a.s./ha, 11 DAA): 0,3
Zahl toter Puppen (Apis mellifera [1]; 75 g a.s./ha, 14 DAA): 0
Zahl toter Puppen (Apis mellifera [1]; 75 g a.s./ha, 18 DAA): 0
Zahl toter Puppen (Apis mellifera [1]; 75 g a.s./ha, 21 DAA): 0
Zahl toter Puppen (Apis mellifera [1]; 75 g a.s./ha, 25 DAA): 0
Zahl toter Puppen (Apis mellifera [1]; 75 g a.s./ha, -3 DAA (before application)): 0
Zahl toter Puppen (Apis mellifera [1]; 150 g a.s./ha, 0 DAA c (17:15 Uhr)): 0
Zahl toter Puppen (Apis mellifera [1]; 150 g a.s./ha, 1 DAA): 0
Zahl toter Puppen (Apis mellifera [1]; 150 g a.s./ha, 2 DAA): 0
Zahl toter Puppen (Apis mellifera [1]; 150 g a.s./ha, 5 DAA): 0
Zahl toter Puppen (Apis mellifera [1]; 150 g a.s./ha, 6 DAA): 0
Zahl toter Puppen (Apis mellifera [1]; 150 g a.s./ha, 11 DAA): 0
Zahl toter Puppen (Apis mellifera [1]; 150 g a.s./ha, 14 DAA): 0,7
Zahl toter Puppen (Apis mellifera [1]; 150 g a.s./ha, 18 DAA): 0
Zahl toter Puppen (Apis mellifera [1]; 150 g a.s./ha, 21 DAA): 0
Zahl toter Puppen (Apis mellifera [1]; 150 g a.s./ha, 25 DAA): 0
Zahl toter Puppen (Apis mellifera [1]; 150 g a.s./ha, -3 DAA (before application)): 0
Mortalität von Puppen vor dem Bienenstock (Apis mellifera [1]; result in words, tunnel test, spray, I-5 75 und 150 g a.s./ha, Fenoxycarb 150 g a.s./ha): keine Mortalität
Anteil an Zellen: Eier (Apis mellifera [2]; [3]): 13,9%
Anteil an Zellen: Larven (Apis mellifera [2]; [3]): 9,2%
Anteil an Zellen: Leer (Apis mellifera [2]; [3]): 26,7%
Anteil an Zellen: Nektar (Apis mellifera [2]; [3]): 12,5%
Anteil an Zellen: Pollen (Apis mellifera [2]; [3]): 3,1%
Anteil an Zellen: Puppen (Apis mellifera [2]; [3]): 34,7%
Anteil an Zellen: Eier (Apis mellifera [2]; [4]): 14,7%
Anteil an Zellen: Larven (Apis mellifera [2]; [4]): 8,3%
Anteil an Zellen: Leer (Apis mellifera [2]; [4]): 32,8%
Anteil an Zellen: Nektar (Apis mellifera [2]; [4]): 12,5%
Anteil an Zellen: Pollen (Apis mellifera [2]; [4]): 4,4%
Anteil an Zellen: Puppen (Apis mellifera [2]; [4]): 27,2%
Anteil an Zellen: Eier (Apis mellifera [2]; [5]): 21,4%
Anteil an Zellen: Larven (Apis mellifera [2]; [5]): 19,7%
Anteil an Zellen: Leer (Apis mellifera [2]; [5]): 30,6%
Anteil an Zellen: Nektar (Apis mellifera [2]; [5]): 8,6%
Anteil an Zellen: Pollen (Apis mellifera [2]; [5]): 5%
Anteil an Zellen: Puppen (Apis mellifera [2]; [5]): 14,7%
Anteil an Zellen: Eier (Apis mellifera [2]; [6]): 16,7%
Anteil an Zellen: Larven (Apis mellifera [2]; [6]): 6,7%
Anteil an Zellen: Leer (Apis mellifera [2]; [6]): 20,7%
Anteil an Zellen: Nektar (Apis mellifera [2]; [6]): 13,2%
Anteil an Zellen: Pollen (Apis mellifera [2]; [6]): 3,3%
Anteil an Zellen: Puppen (Apis mellifera [2]; [6]): 39,4%
Anteil an Zellen: Eier (Apis mellifera [2]; [7]): 13,6%
Anteil an Zellen: Larven (Apis mellifera [2]; [7]): 16,4%
Anteil an Zellen: Leer (Apis mellifera [2]; [7]): 20,8%
Anteil an Zellen: Nektar (Apis mellifera [2]; [7]): 14,2%
Anteil an Zellen: Pollen (Apis mellifera [2]; [7]): 1,4%
Anteil an Zellen: Puppen (Apis mellifera [2]; [7]): 33,6%
Anteil an Zellen: Eier (Apis mellifera [2]; [8]): 15%
Anteil an Zellen: Larven (Apis mellifera [2]; [8]): 6,1%
Anteil an Zellen: Leer (Apis mellifera [2]; [8]): 29,4%
Anteil an Zellen: Nektar (Apis mellifera [2]; [8]): 14,4%
Anteil an Zellen: Pollen (Apis mellifera [2]; [8]): 3,9%
Anteil an Zellen: Puppen (Apis mellifera [2]; [8]): 31,1%
Anteil an Zellen: Eier (Apis mellifera [2]; [9]): 17,8%
Anteil an Zellen: Larven (Apis mellifera [2]; [9]): 16,7%
Anteil an Zellen: Leer (Apis mellifera [2]; [9]): 34,4%
Anteil an Zellen: Nektar (Apis mellifera [2]; [9]): 12,2%
Anteil an Zellen: Pollen (Apis mellifera [2]; [9]): 4,2%
Anteil an Zellen: Puppen (Apis mellifera [2]; [9]): 14,7%
Anteil an Zellen: Eier (Apis mellifera [2]; 150 g a.s./ha, 27 Tage nach Applikation): 15,3%
